According to patent publication US20030078274A1, “Method of reducing neuronal injury or apoptosis” (priority 1999, published 2003):

System: neurons in rat cerebrocortical cultures (gp120-induced apoptosis)
Experiment: gp120-induced neuronal apoptosis in rat cerebrocortical cultures
Type: cell-based, Sprague-Dawley rats
Conditions: SB 203580 10 μM, applied 15 min before gp120
Experimental: The model used in the assays described below, i.e., rat cerebrocortical cultures, was prepared from embryos of Sprague-Dawley rats at day 15 to 17 of gestation. See Lei et al., Neuron 8:1087-1099 (1992) and Lipton et al., Nature 364:626-632 (1993). Cultures were used for experiments after 17 to 24 days in culture. […] Prior to some experiments, macrophages/microglia or neurons were depleted from the cultures by exposure to 7.5 mM L-leucine methyl ester or 2 mM N-methyl-D-aspartate (NMDA), respectively. See Lipton, NeuroReport 3:913-915 (1992). […] In some experiments, the Griess reaction was used to measure nitrite levels in the culture medium as an index of nitric oxide (NO) release. See Chao et al., Glia 16:276-284 (1996).
Cultures were transferred into Earle's Balanced Salt Solution (EBSS) and incubated for 24 hours with gp120, chemokines, Tuftsin fragment 1-3, i.e., Thr-Lys-Pro (TKP), p38 MAPK inhibitor SB 203580 (i.e., 4-(4-fluorophenyl)-2-(4-methylsulfinylphenyl)-5-(4-pyridyl)imidazole, Calbiochem, San Diego, Calif.), or combinations thereof. Chemokines or TKP were applied for 5 minutes and SB 203580 for 15 minutes prior to gp120 exposure.
TKP was obtained from Sigma (St. Louis, Mo.). Recombinant human MIP-1β, SDF-1α, SDF-1β, and recombinant rat RANTES were purchased from R&D systems ([…].) and Endogen (Woburn, Mass.), respectively. HIV-1 envelope glycoprotein gp120 from the strain SF2 was obtained from the NIH AIDS Research and Reference Reagent Program, Division of AIDS, NIAID, NIH. See Scandella et al., AIDS Res. Hum. Retroviruses 9:1233-1244 (1993). Additional gp120s from HIV-1 strains IIIB and RF2 were obtained from Genetech and the National Cancer Institute, respectively. TNFα, IFNγ, and IL-1β were from Genzyme (Cambridge, Mass.), Gibco BRL (Grand Island, N.Y.) and Endogen (Woburn, Mass.), respectively.
Neuronal apoptosis in the above-described assays was assessed using a variety of techniques, e.g., staining of permeabilized cells with propidium iodide to determine apoptotic morphology, and a neuron-specific antibody (against NeuN or MAP-2) to identify cell type. In brief, cells were fixed for 5 minutes with ice-cold acetone at −20° C. and, after three washes in PBS, for 4 minutes with 2% (w/v) paraformaldehyde solution in PBS at room temperature (RT). Acetone-paraformaldehyde-fixed cells were permeabilized using 0.2% Tween 20 in PBS (PBST), and non-specific binding sites were blocked by incubation for 1 hour with a 10% solution of heat-inactivated goat serum in PBST. To specifically stain neurons, cells were then incubated for 4 hours at RT or overnight at 4° C. with 1:500 dilutions of anti-MAP-2 (Sigma) or anti-NeuN monoclonal antibody (mAb; Chemicon, Temecula, Calif.). Their respective non-specific isotype antibodies served as controls. After three washes, the cells were incubated in a secondary polyclonal antibody (pAb) conjugated either to fluorescein isothiocyanate (FITC) or to horseradish peroxidase (HRP). In the case of HRP-coupled pAb, diaminobenzidine (DAB) served as the color substrate developed by incubation in a mixture of 1 mg/ml DAB and 0.8% H2O2 at a ratio of 3:1. Cellular nuclei were subsequently stained with […] propidium iodide for 5 minutes in the dark, and then coverslips were mounted on glass slides. Experiments were replicated at least 3 times with triplicate values in each experiment. Statistical significance was judged by an analysis of variance (ANOVA) followed by a Scheffé or Bonferroni/Dunn post hoc test.

For `C[S+]([O-])c1ccc(-c2nc(-c3ccc(F)cc3)c(-c3ccncc3)[nH]2)cc1` (stereo not shown) [SB 203580, 4-(4-fluorophenyl)-2-(4-methylsulfinylphenyl)-5-(4-pyridyl)-1H-imidazole], the “effect on gp120SF2-induced neuronal apoptosis” value was “substantially attenuated”.
